Measurements published in patent publication US6528251B2, “Method of managing the chemotherapy of patients who are HIV positive based on the phenotypic drug sensitivity of human HIV strains” (Virco N.V., priority 1996, dated 2003).
Where two headings read alike, the source gives them in different places.

How the values were obtained:
Assay type in all cases: cell-based, HIV-1
[1] = test system: recombinant virus from patient viral RNA (Example 6, drug-naive patient); assay: Recombinant virus assay (MT4/MTT), drug-naive patient of Example 6; settings: for IC50: Human immunodeficiency virus 1, Table 2, Example 6 patient virus; for ratio (1)/(2): Table 2, patient mean IC50 / recIIIB IC50, Example 6
Procedure: (§1) RNA was isolated from 100 μl of plasma according to the method described by Boom, R. et al. (1990, supra), and was reverse transcribed with the GeneAmp reverse transcriptase kit (Perkin Elmer) as described by the manufacturer and using an HIV-1 specific downstream primer (OUT3: 5′-CATTGCTCTCCAATTACTGTGATATTTCTCATC-3′; SEQ ID NO: 1). PCR on reverse transcribed RNA was performed with inner and outer primers as described by Kellam, P. and Larder, B. A. (1994, supra). After chloroform extraction and centrifugation on Centricon 100 columns or centrifugation on anion-exchange spin columns (Quiagen), the isolated PCR product was ready for use in the transfection reactions.
(§2) MT4 cells were subcultured at a density of 250,000 cells/ml before transfection (exponential growth phase). Cells were pelleted and resuspended in phosphate buffered saline (PBS) at a concentration of […]. A 0.8 ml portion (2.5 10E6 cells/ml) was used for each transfection. Transfection was performed with the Bio-Rad Gene pulser making use of 0.4 cm electrode cuvettes. Cells were electroporated in the presence of […] of linearised pHIVΔRT plasmid and approximately 5 μg of RT PCR product at 250SF and 300 V, followed by a 30-min incubation at room temperature. Subsequently, 10 ml of fresh culture medium was added to the cell suspension and incubation was performed at 37° C. in a humidified atmosphere of 5% CO2.
(§3) During 7 to 10 days following the transfection, cells were monitored for the appearance of cytopathogenic effect (CPE). In the absence thereof, cells were subcultured in different flasks. Subsequently, culture supernatants of transfected cells were used to create a stock of recombinant virus and stored in 1.5 ml aliquots at −70° C.
(§4) After titration of the new viruses, the stocks were used for antiviral experiments in the presence of serial dilutions of different HIV inhibitors. Titres of the harvested supematants were determined by limited serial dilution titration of virus in MT4 cells.
(§5) Viruses with a useful titre were used in antiviral experiments. For this purpose, 96-well microtitre plates were filled with 100μl of complete culture medium. Subsequently, stock solutions of compounds were added in 25 μl volumes to series of duplicate wells. HIV- and mock-infected cell samples were included for each drug (or drug combination). Exponentially growing MT4 cells were then transferred to the microtitre plates at a density of 150,000 cells/ml. The cell cultures were then incubated at 37° C. in a humidified atmosphere of 5% CO2. Five days after infection, the viability of the mock- and HIV-infected cells was examined spectrophotometrically by the M1T method (Pauwels, R. et al. J. Virol. Meth. (1988), 20: 309-321) as described in Section 6 below.
(§6) To each well of the microtiter plates, 20 μl of a solution of MTT (7.5 mg/ml in PBS) was added. The plates were further incubated at 37° C. for 1 h. Then, 150 μl of medium was removed without disturbing the MT4 cell clusters containing the formazan crystals. Solubilization of the formazan crystals was achieved by adding 100 μl 5% Triton X-100 in acidified isopropanol (5 ml concentrated HCl per liter solvent). Complete dissolution of the formazan crystals was obtained after the plates had been placed on a plate shaker for 10 min. Finally the absorbances were read at two wavelengths (540 and 690 nm). From these optical density (OD) data, 50% inhibitory (IC50) and 50% cytotoxic (CC50) concentrations were derived.
A drug-naive HIV infected patient donated plasma whose susceptibility to a number of RT inhibitors was determined according to the above described protocol of Example 1. Recombinant wild type HIV strain recIIIB was used in said protocol as a reference HIV virus.

[2] = test system: recombinant virus from patient viral RNA (Example 7, drug-naive patient); assay: Recombinant virus assay (MT4/MTT), drug-naive patient of Example 7; settings: for IC50: Human immunodeficiency virus 1, Table 3, Example 7 patient virus; for ratio (1)/(2): Table 3, patient mean IC50 / recIIIB IC50, Example 7
Procedure: as §1, §2, §3, §4, §5, §6
A drug-naive HIV-infected patient donated plasma whose susceptibility to a number of RT inhibitors was determined according to the protocol set out in Example 1. Recombinant wild type HIV strain recIIIB was used as a reference HIV virus.

[3] = test system: Recombinant wild type HIV strain recIIIB; assay: Antiviral MT4/MTT assay with reference virus recIIIB; settings: read-out: Anti-HIV-1 activity IC50 (μM) recIIIB ref (2)
Procedure: as §4, §5, §6

[4] = test system: recombinant virus from patient viral RNA (Example 8); assay: Recombinant virus assay (MT4/MTT), patient of Example 8 (therapy history AZT, 3TC and loviride); settings: for IC50: Human immunodeficiency virus 1, Table 4, Example 8 patient virus; for ratio (1)/(2): Table 4, patient mean IC50 / recIIIB IC50, Example 8
Procedure: as §1, §2, §3, §4, §5, §6
An HIV-infected patient with a therapy history including AZT, 3TC and loviride donated plasma whose susceptibility to a number of RT inhibitors was determined according to the protocol set out in Example 1. Recombinant wild type HIV strain recIIIB was used as a reference HIV virus.

[5] = test system: recombinant virus from patient viral RNA (Example 5, 3TC resistant HIV strains); assay: Recombinant virus assay (MT4/MTT), patient of Example 5 (AZT, then AZT+3TC therapy); settings: for IC50: Human immunodeficiency virus 1, Table 1, Example 5 patient virus; for ratio (1)/(2): Table 1, patient mean IC50 / recIIIB IC50, Example 5
Procedure: as §1, §2, §3, §4, §5, §6
An HIV infected patient who received AZT from December 1989 until an undocumented later date, and switched to a combined chemotherapy of AZT+3TC (1:1) from February 1994 until October 1995 donated plasma whose susceptibility to a number of RT inhibitors was determined according to the above described protocol of Example 1. Recombinant wild type HIV strain recIIIB was used in said protocol as a reference HIV virus.

[6] = test system: recombinant virus from patient viral RNA (Example 9); assay: Recombinant virus assay (MT4/MTT), patient of Example 9 (multiple nucleoside analogue RT-inhibitors); settings: for IC50: Human immunodeficiency virus 1, Table 5, Example 9 patient virus; for ratio (1)/(2): Table 5, patient mean IC50 / recIIIB IC50, Example 9
Procedure: as §1, §2, §3, §4, §5, §6
An HIV-infected patient with a therapy history including multiple nucleoside analogue RT-inhibitors donated plasma whose susceptibility to a number of RT inhibitors was determined according to the protocol set out in Example 1. Recombinant wild type HIV strain recIIIB was used as a reference HIV virus.

[7] = MT4 cells, read-out: Anti-HIV-1 activity IC50 (μM) Exp. 1
[8] = MT4 cells, read-out: Anti-HIV-1 activity IC50 (μM) Exp. 2
[9] = mean of Exp. 1 and 2, read-out: Anti-HIV-1 activity IC50 (μM) Mean (1)
[10] = mean, read-out: Anti-HIV-1 activity IC50 (μM) Mean (1)
[11] = Human immunodeficiency virus 1, Table 1, reference run of Example 5
[12] = Human immunodeficiency virus 1, Table 2, reference run of Example 6
[13] = Human immunodeficiency virus 1, Table 3, reference run of Example 7
[14] = Human immunodeficiency virus 1, Table 4, reference run of Example 8
[15] = Human immunodeficiency virus 1, Table 5, reference run of Example 9

SMILES	IC50 [1, 7] [µM]	IC50 [1, 8] [µM]	IC50 [1, 9] [µM]	ratio (1)/(2) [1]	IC50 [2, 7] [µM]	IC50 [2, 8] [µM]	IC50 [2, 10] [µM]	ratio (1)/(2) [2]	IC50 [3, 11] [µM]	IC50 [3, 12] [µM]	IC50 [3, 13] [µM]	IC50 [3, 14] [µM]	IC50 [3, 15] [µM]	IC50 [4, 7] [µM]	IC50 [4, 8] [µM]	IC50 [4, 10] [µM]	ratio (1)/(2) [4]	IC50 [5, 7] [µM]	IC50 [5, 8] [µM]	IC50 [5, 9] [µM]	also measured
Cc1cn([C@H]2C[C@H](N=[N+]=[N-])[C@@H](CO)O2)c(=O)[nH]c1=O [AZT, zidovudine]	0.04	0.05	0.05	1	0.052	0.05	0.051	2	0.004	0.06	0.023	0.084	0.291	18.3	22.3	20.3	241	0.001	0.002	0.002	IC50 ([3]; Human immunodeficiency virus 1, Table 6, reference run of Example 10): 0.041 µM; IC50 ([3]; Human immunodeficiency virus 1, Table 7, reference run of Example 11): 0.047 µM; IC50 ([3]; Human immunodeficiency virus 1, Table 8, reference run of Example 12): 0.041 µM; ratio (1)/(2) [5]: 0.4; IC50 [6, 7]: > 100 µM; IC50 [6, 10]: > 100 µM; ratio (1)/(2) [6]: >344
Nc1ccn([C@H]2CC[C@@H](CO)O2)c(=O)n1 [ddC, zalcitabine]	1.45	1.47	1.46	1	1.04	1.39	1.22	0.8	0.38	2.21	1.62	1.93	3.44	9.29	8.51	8.9	5	0.2	0.2	0.2	ratio (1)/(2) [5]: 0.5; IC50 [6, 7]: 60.1 µM; IC50 [6, 8]: 73 µM; IC50 [6, 10]: 66.6 µM; ratio (1)/(2) [6]: 19
O=c1[nH]cnc2c1ncn2[C@H]1CC[C@@H](CO)O1 [ddI, didanosinen]	3.07	4.47	3.77	0.4	0.475	0.429	0.452	0.7	2.83	8.58	0.648	1.59	4.76	26.9	15.4	21.1	13	2	0.8	1.4	ratio (1)/(2) [5]: 0.5; IC50 [6, 7]: > 100 µM; IC50 [6, 8]: > 100 µM; IC50 [6, 10]: > 100 µM; ratio (1)/(2) [6]: >21
